US20050070509A1, “Antimycotic agent” (priority 2001, published 2005)

What was measured:
Type in all cases: cell-based
[1] = test system: Trichlorophyton rubrum; assay: agar incorporation test, growth inhibition of dermatophytes
Method: (§1) The activity of the compound according to the invention as agent for inhibiting the growth of various types of yeasts was studied in an agar incorporation test. The nutrient medium used was Sabouraud agar. Several samples of each of the yeast types below, which were isolated directly from diseased patients, were tested: • a) Candida tropicalis • b) Candida albicans • c) Candida glabrata • d) Candida parapsilosis.
(§2) The cultures were supplemented with bis(N-cyclohexyldiazeniumdioxy)copper in such an amount that an end concentration of 25 or 50 ppm was obtained. The cultures were subsequently incubated at 30° C., and the growth of the isolates was assessed after an incubation period of 2 to 5 days.
(§3) The activity of the compound according to the invention for inhibiting the growth of the dermatophyte cultures below was studied in an agar incorporation test as described in Example 1. The active ingredient concentration in the samples amounted to 2.5, 5, 10, 15, 20, 25, 30, 35, 40, 45 and 50 ppm. The isolates were studied after an incubation period of 7, 14 and 21 days, and their growth was determined.

[2] = test system: Scopulariopsis brevicaulis; assay: as above
Method: as §1, §2, §3

[3] = test system: Microsporum canis; assay: as above
Method: as §1, §2, §3

[4] = test system: Trichophyton mentagrophytes; assay: as above
Method: as §1, §2, §3

[5] = test system: Epidermophyton floccosum; assay: as above
Method: as §1, §2, §3

[6] = test system: Candida glabrata; assay: agar incorporation test, growth inhibition of yeasts; details: Sabouraud agar, 30° C., patient isolates
Method: as §1, §2

[7] = test system: Candida parapsilosis; assay: as above; details: Sabouraud agar, 30° C., patient isolates
Method: as §1, §2

[8] = test system: Candida albicans; assay: as above; details: Sabouraud agar, 30° C., patient isolates
Method: as §1, §2

[9] = test system: Candida tropicalis; assay: as above; details: Sabouraud agar, 30° C., patient isolates
Method: as §1, §2

[10] = active ingredient 25 ppm, incubation 2 and 5 days
[11] = active ingredient 50 ppm, incubation 2 to 5 days

For `O=NN([O-])C1CCCCC1.O=NN([O-])C1CCCCC1.[Cu+2]` [bis(N-cyclohexyldiazeniumdioxy)copper], the “Effective active ingredient concentration” value ([1]; incubation period 7 days) was 15 ppm, the “Effective active ingredient concentration” value ([1]; incubation period 14 days) was 15 ppm and the “Effective active ingredient concentration” value ([1]; incubation period 21 days) was 15 ppm. For the same molecule, the “Effective active ingredient concentration” value ([2]; incubation period 7 days) was 25 ppm, the “Effective active ingredient concentration” value ([2]; incubation period 14 days) was 35 ppm and the “Effective active ingredient concentration” value ([2]; incubation period 21 days) was 40 ppm. For the same molecule, the “Effective active ingredient concentration” value ([3]; incubation period 7 days) was “≦10 ppm”, the “Effective active ingredient concentration” value ([3]; incubation period 14 days) was 15 ppm and the “Effective active ingredient concentration” value ([3]; incubation period 21 days) was 15 ppm. For the same molecule, the “Effective active ingredient concentration” value ([4]; incubation period 7 days) was 30 ppm, the “Effective active ingredient concentration” value ([4]; incubation period 14 days) was 30 ppm and the “Effective active ingredient concentration” value ([4]; incubation period 21 days) was 30 ppm. The “Effective active ingredient concentration” value ([5]; incubation period 7 days) was 15 ppm, the “Effective active ingredient concentration” value ([5]; incubation period 14 days) was 20 ppm and the “Effective active ingredient concentration” value ([5]; incubation period 21 days) was 20 ppm. For the same molecule, the “growth of the isolates” value [6, 10] was “still growing”, the “growth of the isolates” value [6, 11] was “no growth” and the “growth of the isolates” value [7, 10] was “still growing”. The “growth of the isolates” value [7, 11] was “no growth”, the “growth of the isolates” value [8, 10] was “still growing” and the “growth of the isolates” value [8, 11] was “no growth”. For the same molecule, the “growth of the isolates” value [9, 10] was “still growing” and the “growth of the isolates” value [9, 11] was “no growth”.
